Measured values published in patent publication US7322965B2, “Infection-resistant medical devices” (priority 2002, dated 2008).
Read-outs that look alike come from different tables or passages of the source. Marks after values point to notes of the source that are not given here.

Columns and labels:
Type in all cases: cell-based
S. epidermidis UC-20207 [1] = test: Time course adherence assay (prophylactic and delayed treatment); conditions: for inhibition at 1 µg/mL / inhibition at 2 µg/mL / inhibition at 4 µg/mL / inhibition at 80 µg/mL: Staphylococcus epidermidis, read-out: Percent inhibition of bacterial adherence relative to controls; for Mean OD550: UC-20207
Protocol: (§1) Drug effects on bacterial adherence were measured 18 hours after treatment initiation using a quantitative spectrophotometric assay.
(§2) Relative inhibition of adherence was expressed by the following equation: (OD of control well−OD of treated well/OD of control well)×100, where OD is the mean optical density of six replicate wells from two separate experiments (three replicates per experiment). Control was defined as infected, drug-free cultures.
(§3) The primary efficacy variable in this study was the measurement of adherent bacteria to polystyrene surfaces after 18 hours to 24 hours of growth. To determine whether statistically significant differences existed between treatments (4×MIC, 2×MIC, MIC, and ½ MIC) compared with the infected-nontreated controls, multiple comparisons according to Dunnett's test (Montgomery, Design and Analysis of Experiments (1991)) were applied for each clinical strain. Differences were considered statistically significant when p<0.05.

S. epidermidis UC-20208 = test: as above; conditions: for inhibition at 1 µg/mL / inhibition at 2 µg/mL / inhibition at 4 µg/mL / inhibition at 8 µg/mL: Staphylococcus epidermidis, read-out: Percent inhibition of bacterial adherence relative to controls; for Mean OD550: UC-20208
Protocol: as §1, §2, §3

S. epidermidis RP62A = test: Microtiter-plate adherence assay on polystyrene; conditions: 18 h; for Adherence Mean OD550: S. epidermidis RP62A
Protocol: (§4) Briefly, the inoculum was established by the direct colony suspension method using the Prompt™ Inoculation System (Becton Dickinson, Sparks, Md.). The bacteria suspension, which was equal to the turbidity of a 0.5 McFarland standard, was diluted in TSB to a concentration of 1×10^6 colony forming units per ml (CFU/mL). One hundred microliters of the cell suspension was added to flat-bottom polystyrene wells (Corning Costar, Corning, N.Y.) containing 100 μl of TSB, with and without drug. The final inoculum concentration per well was approximately 5×10^5 CFU/mL. The plates were incubated at 37° C. under static conditions in air. At 18 hours (h) post-infection, the optical density of bacterial growth was measured at a wavelength of 595 nm in a microtiter plate reader (Vmax; Molecular Devices, Sunnyvale, Calif.). […] Adherent “sessile” cells then were fixed with 3.7% (v/v) formaldehyde/2% (w/v) sodium acetate and stained with 0.1% (w/v) crystal violet. Excess stain was rinsed off with deionized water and the plates were air-dried for 4 h. The optical density of bacterial adherence was determined at a wavelength of 550 nm. […] To compensate for background absorbance, optical density readings from wells treated with sterile medium, fixative and stain as described above were averaged and then subtracted from all test and control wells. Relative inhibition of adherence or growth was expressed by the following equation: (OD of control well−OD of treated well/OD of control well)×100, where OD is the mean optical density of six replicate wells from two separate experiments (three replicates per experiment). Control was defined as infected, drug-free cultures.
(§5) The primary efficacy variable in this study was the measurement of adherent bacterial cells to polystyrene after 18 h of growth. To determine whether statistically significant differences existed between treatment groups (MIC, ½ MIC, and ¼ MIC) compared with the infected-nontreated controls, the Kruskal-Wallis one-way analysis of variance (ANOVA) was applied for each clinical strain. Statistical significance was defined as p-values ≦0.05. An asterisk (*) was placed by all test values less than or equal to the specified significance level.

S. epidermidis UC-20207 [2] = test: Microtiter-plate adherence assay on polystyrene; conditions: for Adherence Mean OD550: S. epidermidis UC-20207, 18 h
Protocol: as §4, §5

[3] = 1.0 μg/ml, treatment 0 h post-infection
[4] = 1.0 μg/ml, treatment 2 h post-infection
[5] = 1.0 μg/ml, treatment 4 h post-infection
[6] = 1.0 μg/ml, treatment 6 h post-infection
[7] = 2.0 μg/ml (MIC), treatment 0 h post-infection
[8] = 2.0 μg/ml (MIC), treatment 2 h post-infection
[9] = 2.0 μg/ml (MIC), treatment 4 h post-infection
[10] = 2.0 μg/ml (MIC), treatment 6 h post-infection
[11] = 4.0 μg/ml, treatment 0 h post-infection
[12] = 4.0 μg/ml, treatment 2 h post-infection
[13] = 4.0 μg/ml, treatment 4 h post-infection
[14] = 4.0 μg/ml, treatment 6 h post-infection
[15] = Staphylococcus epidermidis, RP62A, read-out: Adherence % Inhibition
[16] = Staphylococcus epidermidis, UC20207, 18 h, read-out: Adherence % Inhibition

With CC(=O)NC[C@H]1CN(c2ccc(N3CCOCC3)c(F)c2)C(=O)O1 [Linezolid, (S)-N-[[3-[3-fluoro-4-(4-morpholinyl)phenyl]-2-oxo-5-oxazolidinyl]methyl]acetamide] the inhibition at 1 µg/mL (S. epidermidis UC-20207 [1]; UC20207, 0 h) was 96.5%, the inhibition at 2 µg/mL (S. epidermidis UC-20207 [1]; UC20207, 0 h) was 99% and the inhibition at 4 µg/mL (S. epidermidis UC-20207 [1]; UC20207, 0 h) was 99.6%. It also gave an inhibition at 80 µg/mL (S. epidermidis UC-20207 [1]; UC20207, 0 h) of 99.8%, an inhibition at 1 µg/mL (S. epidermidis UC-20207 [1]; UC20207, 2 h) of 97.5% and an inhibition at 2 µg/mL (S. epidermidis UC-20207 [1]; UC20207, 2 h) of 99.8%. It also gave an inhibition at 4 µg/mL (S. epidermidis UC-20207 [1]; UC20207, 2 h) of 99.7%, an inhibition at 80 µg/mL (S. epidermidis UC-20207 [1]; UC20207, 2 h) of 99.6% and an inhibition at 1 µg/mL (S. epidermidis UC-20207 [1]; UC20207, 4 h) of 68.4%. For the same compound, the inhibition at 2 µg/mL (S. epidermidis UC-20207 [1]; UC20207, 4 h) was 87.8%, the inhibition at 4 µg/mL (S. epidermidis UC-20207 [1]; UC20207, 4 h) was 99.2% and the inhibition at 80 µg/mL (S. epidermidis UC-20207 [1]; UC20207, 4 h) was 99%. For the same compound, the inhibition at 1 µg/mL (S. epidermidis UC-20207 [1]; UC20207, 6 h) was 0%, the inhibition at 2 µg/mL (S. epidermidis UC-20207 [1]; UC20207, 6 h) was 0% and the inhibition at 4 µg/mL (S. epidermidis UC-20207 [1]; UC20207, 6 h) was 41.4%. The inhibition at 80 µg/mL (S. epidermidis UC-20207 [1]; UC20207, 6 h) was 75.1%, the “Mean OD550” value (S. epidermidis UC-20207 [1]; [3]) was 0.084 ± 0.049 and the “Mean OD550” value (S. epidermidis UC-20207 [1]; [4]) was 0.064 ± 0.046. For the same compound, the “Mean OD550” value (S. epidermidis UC-20207 [1]; [5]) was 0.921 ± 0.119, the “Mean OD550” value (S. epidermidis UC-20207 [1]; [6]) was 2.757 ± 0.173 and the “Mean OD550” value (S. epidermidis UC-20207 [1]; [7]) was 0.024 ± 0.005. The “Mean OD550” value (S. epidermidis UC-20207 [1]; [8]) was 0.004 ± 0.002, the “Mean OD550” value (S. epidermidis UC-20207 [1]; [9]) was 0.356 ± 0.418 and the “Mean OD550” value (S. epidermidis UC-20207 [1]; [10]) was 2.938 ± 0.119. For the same compound, the “Mean OD550” value (S. epidermidis UC-20207 [1]; [11]) was 0.009 ± 0.004, the “Mean OD550” value (S. epidermidis UC-20207 [1]; [12]) was 0.007 ± 0.001 and the “Mean OD550” value (S. epidermidis UC-20207 [1]; [13]) was 0.022 ± 0.010. For the same compound, the “Mean OD550” value (S. epidermidis UC-20207 [1]; [14]) was 1.558 ± 0.094, the “Mean OD550” value (S. epidermidis UC-20207 [1]; linezolid 80 μg/ml, treatment 0 h post-infection) was 0.005 ± 0.002 and the “Mean OD550” value (S. epidermidis UC-20207 [1]; linezolid 80 μg/ml, treatment 2 h post-infection) was 0.009 ± 0.003. The “Mean OD550” value (S. epidermidis UC-20207 [1]; linezolid 80 μg/ml, treatment 4 h post-infection) was 0.028 ± 0.020, the “Mean OD550” value (S. epidermidis UC-20207 [1]; linezolid 80 μg/ml, treatment 6 h post-infection) was 0.662 ± 0.103 and the inhibition at 1 µg/mL (S. epidermidis UC-20208; UC20208, 0 h) was 99.9%. The inhibition at 2 µg/mL (S. epidermidis UC-20208; UC20208, 0 h) was 99.9%, the inhibition at 4 µg/mL (S. epidermidis UC-20208; UC20208, 0 h) was 99.8% and the inhibition at 8 µg/mL (S. epidermidis UC-20208; UC20208, 0 h) was 100%. For the same compound, the inhibition at 1 µg/mL (S. epidermidis UC-20208; UC20208, 2 h) was 99.8%, the inhibition at 2 µg/mL (S. epidermidis UC-20208; UC20208, 2 h) was 99.8% and the inhibition at 4 µg/mL (S. epidermidis UC-20208; UC20208, 2 h) was 99.7%. The inhibition at 8 µg/mL (S. epidermidis UC-20208; UC20208, 2 h) was 99.7%, the inhibition at 1 µg/mL (S. epidermidis UC-20208; UC20208, 4 h) was 22.1% and the inhibition at 2 µg/mL (S. epidermidis UC-20208; UC20208, 4 h) was 100%. It also gave an inhibition at 4 µg/mL (S. epidermidis UC-20208; UC20208, 4 h) of 100%, an inhibition at 8 µg/mL (S. epidermidis UC-20208; UC20208, 4 h) of 100% and an inhibition at 1 µg/mL (S. epidermidis UC-20208; UC20208, 6 h) of 0%. The inhibition at 2 µg/mL (S. epidermidis UC-20208; UC20208, 6 h) was 0%, the inhibition at 4 µg/mL (S. epidermidis UC-20208; UC20208, 6 h) was 56.8% and the inhibition at 8 µg/mL (S. epidermidis UC-20208; UC20208, 6 h) was 89.1%. For the same compound, the “Mean OD550” value (S. epidermidis UC-20208; [3]) was 0.001 ± 0.002, the “Mean OD550” value (S. epidermidis UC-20208; [4]) was 0.003 ± 0.001 and the “Mean OD550” value (S. epidermidis UC-20208; [5]) was 0.856 ± 0.472. The “Mean OD550” value (S. epidermidis UC-20208; [6]) was 1.127 ± 0.133, the “Mean OD550” value (S. epidermidis UC-20208; [7]) was 0.001 ± 0.001 and the “Mean OD550” value (S. epidermidis UC-20208; [8]) was 0.003 ± 0.000. For the same compound, the “Mean OD550” value (S. epidermidis UC-20208; [9]) was 0.000 ± 0.003, the “Mean OD550” value (S. epidermidis UC-20208; [10]) was 1.602 ± 0.300 and the “Mean OD550” value (S. epidermidis UC-20208; [11]) was 0.002 ± 0.001. For the same compound, the “Mean OD550” value (S. epidermidis UC-20208; [12]) was 0.004 ± 0.001, the “Mean OD550” value (S. epidermidis UC-20208; [13]) was 0.000 ± 0.001 and the “Mean OD550” value (S. epidermidis UC-20208; [14]) was 0.363 ± 0.280. For the same compound, the “Mean OD550” value (S. epidermidis UC-20208; 8.0 μg/ml, treatment 0 h post-infection) was 0.000 ± 0.001, the “Mean OD550” value (S. epidermidis UC-20208; 8.0 μg/ml, treatment 2 h post-infection) was 0.004 ± 0.001 and the “Mean OD550” value (S. epidermidis UC-20208; 8.0 μg/ml, treatment 4 h post-infection) was 0.000 ± 0.003. The “Mean OD550” value (S. epidermidis UC-20208; 8.0 μg/ml, treatment 6 h post-infection) was 0.092 ± 0.053, the “Adherence Mean OD550” value (S. epidermidis RP62A; drug 0.5 μg/ml) was 0.125 ± 0.133* and the “Adherence Mean OD550” value (S. epidermidis RP62A; drug 1.0 μg/ml) was 0.002 ± 0.002*. For the same compound, the “Adherence Mean OD550” value (S. epidermidis RP62A; drug 2.0 μg/ml (MIC)) was 0.001 ± 0.001*, the inhibition at 0.5 µg/mL (S. epidermidis RP62A; [15]) was 95.5% and the inhibition at 1 µg/mL (S. epidermidis RP62A; [15]) was 99.9%. The inhibition at 2 µg/mL (S. epidermidis RP62A; [15]) was 100%, the “Adherence Mean OD550” value (S. epidermidis UC-20207 [2]; drug 0.5 μg/ml) was 0.513 ± 0.227* and the “Adherence Mean OD550” value (S. epidermidis UC-20207 [2]; drug 1.0 μg/ml) was 0.007 ± 0.002*. For the same compound, the “Adherence Mean OD550” value (S. epidermidis UC-20207 [2]; drug 2.0 μg/ml (MIC)) was 0.010 ± 0.005*, the inhibition at 0.5 µg/mL (S. epidermidis UC-20207 [2]; [16]) was 76.9% and the inhibition at 1 µg/mL (S. epidermidis UC-20207 [2]; [16]) was 99.7%. The inhibition at 2 µg/mL (S. epidermidis UC-20207 [2]; [16]) was 99.5%.
